{
  "source": "patent US20190282518A1",
  "about": "(Bryn Pharma, LLC, priority 2018, published 2019)",
  "test_system": "histamine induced nasal congestion",
  "settings": "5% histamine aerosol, dogs",
  "data": [
    {"smiles": "NCCc1c[nH]cn1", "note": "[Histamine]", "values": [
      {"measurement": "induction of nasal congestion", "result": "induced congestion in all animals to varying degrees"}
    ]}
  ]
}
